# Measurements as given in patent publication US11013696B2, “Lipids and lipid compositions for the delivery of active agents” (Novartis AG, priority 2013, dated 2021).
# Test: Percent encapsulation of mRNA in lipid nanoparticles (Quant-iT Ribogreen)
# Format: physicochemical
# Conditions: Table 2; leptin mRNA in LNP with the cationic lipid
# Description: All equipment and disposable supplies are certified free of RNase activity by the manufacturer or rendered RNase free by use of the RNaseZap reagent (LifeTechnologies). mRNA is encapsulated at a cationic lipid amine to mRNA phosphate (N:P) molar ratio of 4:1. Lipids (cationic lipid, DSPC, cholesterol and lipidated PEG or stealth lipid) are dissolved in ethanol. The molar ratios are 40:10:38:2, respectively. The mixture is sonicated briefly, then gently agitated for 5 minutes and then maintained at 37° C. until use. mRNA is exchanged into citrate buffer pH 5.8-6.0 by use of Amicon Ultra-15 centrifugal concentrators, and the final concentration is adjusted to 0.5 mg/ml and held at 37° C. until use. An equal volume of lipids in ethanol, mRNA in citrate buffer, and citrate buffer alone are drawn into disposable syringes. Tubing leading from syringes containing lipids and mRNA are attached to the T junction, and tubing leading from the syringe containing citrate buffer alone is paired with the tubing exiting the T-junction over a collection vessel containing a stir bar on an active stir plate. Syringes are placed in a syringe pump set to expel contents at a flow rate of 1 ml per minute.
# The pump is activated, and the collected mRNA in lipid nanoparticles is transferred to SnakeSkin dialysis tubing (10,000 MWCO, Thermo Scientific). Material is dialyzed against RNAse- and pyrogen-free 1× phosphate buffered saline overnight at 4° C.
# Percent encapsulation of mRNA in lipid nanoparticles is determined using the Quant-iT Ribogreen RNA Assay kit (Life Technologies). The LNP-mRNA suspension is assayed in buffer (mRNA outside the particle), and buffer plus Triton X-100 detergent (total mRNA). The difference calculated is the mRNA inside the particle. Prepare a 1000 ng/mL stock from the RNA provided in the kit and use this to generate a standard curve (0 ng/ml, 15.63-1000 ng/ml) in TE and TE+0.75% Triton X-100. Prepare LNP-mRNA samples in TE buffer and TE buffer +0.75% Triton X-100 with appropriate dilution so that reading is in the range of standard curve (400-2,000 fold). In a 384-well plate (Costar non-treated #3573) add 0.04 ml of standard (in duplicate) or sample (in triplicate) per well. Dilute Ribogreen reagent 240-fold in TE buffer and add 0.06 ml per well. Mix contents of wells and measure fluorescence (excitation=480 nm, emission=520 nm). Subtract background values (no RNA) from standard and test sample values and determine the concentrations of RNA in the samples using the standard curves. Determine the percent encapsulation of the sample by dividing the difference in concentrations between sample+triton and sample in buffer alone by the sample+triton concentration.
row,SMILES,% encapsulation mRNA Leptin [%]
1,"CCCCCCCCCCCCC(CCCC(=O)OCCCC(OCCCCCCCC)OCCCCCCCC)OC(=O)OCCCN(CC)CC (stereo not shown) [Example 129, 4,4-bis(octyloxy)butyl 5-(((3-(diethylamino)propoxy)carbonyl)oxy)heptadecanoate]",96.8
2,"CCCCCCCCCCCCC(CCCOC(=O)CCCCC(COC(=O)CCCCCCC)COC(=O)CCCCCCC)OC(=O)C1(C)CCN(C)C1 (stereo not shown) [Example 132, 2-(5-((4-((1,3-dimethylpyrrolidine-3-carbonyl)oxy)hexadecyl)oxy)-5-oxopentyl)propane-1,3-diyl dioctanoate]",95.5
3,"CCCCCCCCCCCCC(CCCOC(=O)CCCCC(COC(=O)CCCCCCC)COC(=O)CCCCCCC)OC(=O)O[C@H]1CCN(C)C1 (stereo partly drawn) [Example 134, 2-(5-((4-(((((S)-1-methylpyrrolidin-3-yl)oxy)carbonyl)oxy)hexadecyl)oxy)-5-oxopentyl)propane-1,3-diyl dioctanoate]",96.6

# Further lines, results first:
row,% encapsulation mRNA Leptin [%],SMILES
1,86.2,"CCCCCCCCOC(CCCCC(=O)OCCC(CCCOC(=O)CCCCCCC)OC(=O)OCCCN(CC)CC)OCCCCCCCC (stereo not shown) [Example 128, 6-((6,6-bis(octyloxy)hexanoyl)oxy)-4-(((3-(diethylamino)propoxy)carbonyl)oxy)hexyl octanoate]"
2,97.8,"CCCCCCCCCCCCC(CCOC(=O)OCCCC(OCCCCCCCC)OCCCCCCCC)OC(=O)OCCCN(CC)CC (stereo not shown) [Example 130, 4,4-bis(octyloxy)butyl (3-(diethylamino)propyl) pentadecane-1,3-diyl dicarbonate]"
3,96.2,"CCCCCCCCCCCCC(CCCOC(=O)CCCCC(COC(=O)CCCCCCC)COC(=O)CCCCCCC)OC(=O)O[C@@H]1CCN(C)C1 (stereo partly drawn) [Example 135, 2-(5-((4-(((((R)-1-methylpyrrolidin-3-yl)oxy)carbonyl)oxy)hexadecyl)oxy)-5-oxopentyl)propane-1,3-diyl dioctanoate]"
4,98.1,"CCCCCCCCCCCCC(CCCOC(=O)CCCCC(COC(=O)CCCCCCC)COC(=O)CCCCCCC)OC(=O)OC1CCN(C)CC1 (stereo not shown) [Example 137, 2-(5-((4-((((1-methylpiperidin-4-yl)oxy)carbonyl)oxy)hexadecyl)oxy)-5-oxopentyl)propane-1,3-diyl dioctanoate]"
5,92.9,"CCCCCCCCCCCCC(CCCOC(=O)CCCCC(COC(=O)CCCCCCC)COC(=O)CCCCCCC)OC(=O)OCCCN(CC)CC (stereo not shown) [Example 138, 2-(10-dodecyl-3-ethyl-8,15-dioxo-7,9,14-trioxa-3-azanonadecan-19-yl)propane-1,3-diyl dioctanoate]"
6,94.9,"CCCCCCCCCCCCC(CCOC(=O)CCCCC(COC(=O)CCCCCCC)COC(=O)CCCCCCC)OC(=O)OCCCN1CCCCC1 (stereo not shown) [Example 141, 2-(5-oxo-5-((3-(((3-(piperidin-1-yl)propoxy)carbonyl)oxy)pentadecyl)oxy)pentyl)propane-1,3-diyl dioctanoate]"
7,92.5,"CCCCCCCCCCCCC(CCOC(=O)OCCCN(CC)CC)OC(=O)CCCCC(COC(=O)CCCCCCC)COC(=O)CCCCCCC (stereo not shown) [Example 142, 2-(12-dodecyl-3-ethyl-8,14-dioxo-7,9,13-trioxa-3-azaoctadecan-18-yl)propane-1,3-diyl dioctanoate]"

# Test: siRNA encapsulation in lipid nanoparticles (SYBR Gold)
# Format: physicochemical
# Conditions: Table 2; FVII siRNA in LNP with the cationic lipid
# Description: The lipid nanoparticles (LNPs) were formed by mixing equal volumes of lipids dissolved in alcohol with siRNA dissolved in a citrate buffer by an impinging jet process. The lipid solution contains a cationic lipid compound of the invention, a helper lipid (cholesterol), an optional neutral lipid (DSPC) and a PEG (PEG) lipid at a concentration of 8-16 mg/mL with a target of 12 mg/mL in an alcohol. The siRNA to total lipid ratio is approximately 0.05 (wt/wt). Where a LNP formulation contains four lipid components, the molar ratios of the lipids ranges from 20 to 70 mole percent for the cationic lipid with a target of 40-60, the mole percent of helper lipid ranges from 20 to 70 with a target of 30 to 50, the mole percent of neutral lipid ranges from 0-30, the mole percent of PEG lipid has a range from 1 to 6 with a target of 2 to 5. The concentration of siRNA solution ranges from 0.7 to 1.0 mg/mL with a target of 0.8 to 0.9 mg/mL in a sodium citrate: sodium chloride buffer pH 4-6, with a target of 4.5-5.5. The LNPs are formed by mixing equal volumes of lipid solution in ethanol with siRNA dissolved in a citrate buffer by an impinging jet process through a mixing device with ID ranging from 0.25 to 2.0 mm at a flow rate from 10 to 640 mL/min. The mixed LNP solution is held at room temperature for 0-24 hrs prior to a dilution step. The solution is then concentrated and diafiltered with suitable buffer by ultrafiltration or dialysis process using membranes with a MW cutoff from 30 to 500 KD. The final product is sterile filtered and stored at 4° C.
# The lipid nanoparticles (LNPs) were formed by mixing equal volumes of lipids dissolved in alcohol with siRNA dissolved in a citrate buffer by an impinging jet process. The lipid solution contains a cationic lipid compound of the invention, a helper lipid (cholesterol), an optional neutral lipid (DSPC) and a stealth lipid (5010, S024, S027, or S031) at a concentration of 8-16 mg/mL with a target of 12 mg/mL in an alcohol. The siRNA to total lipid ratio is approximately 0.05 (wt/wt). Where a LNP formulation contains four lipid components, the molar ratios of the lipids ranges from 20 to 70 mole percent for the cationic lipid with a target of 40-60, the mole percent of helper lipid ranges from 20 to 70 with a target of 30 to 50, the mole percent of neutral lipid ranges from 0-30, the mole percent of PEG lipid has a range from 1 to 6 with a target of 2 to 5. The concentration of siRNA solution ranges from 0.7 to 1.0 mg/mL with a target of 0.8 to 0.9 mg/mL in a sodium citrate: sodium chloride buffer pH 4-6, with a target of 4.5-5.5. The LNPs are formed by mixing equal volumes of lipid solution in ethanol with siRNA dissolved in a citrate buffer by an impinging jet process through a mixing device with ID ranging from 0.25 to 2.0 mm at a flow rate from 10 to 640 mL/min. The mixed LNP solution is held at room temperature for 0-24 hrs prior to a dilution step. The solution is then concentrated and diafiltered with suitable buffer by ultrafiltration process using membranes with a MW cutoff from 30 to 500 KD. The final product is sterile filtered and stored at 4° C.
# SYBR Gold flourescence reagent is used for the determination of siRNA encapsulation in the DLP's. DLP's with and without triton x-100 are used to determine the free siRNA and total siRNA amounts. DLP's samples with and without triton X-100 were excited at 485 nm and flourescence emission is measured at 530 nm. Encapsulation efficiency is calculated based on the following formula: Encapsulation efficiency:[([…])/(total siRNA concentration)]×100% Encapsulation Data
row,SMILES,% encapsulation siRNA FVII [%]
1,"CCCCCCCCCCCCC(CCOC(=O)CCC(COC(=O)CCCCCCC)COC(=O)CCCCCCC)OC(=O)OCCCN(CC)CC (stereo not shown) [Example 4, 2-(10-dodecyl-3-ethyl-8,14-dioxo-7,9,13-trioxa-3-azahexadecan-16-yl)propane-1,3-diyl dioctanoate]",88.6
2,"CCCCCCCCCCCCC(CCOC(=O)CCC(OCC(CC)CCCC)OCC(CC)CCCC)OC(=O)OCCCN(CC)CC (stereo not shown) [Example 12, 3-(((3-(diethylamino)propoxy)carbonyl)oxy)pentadecyl 4,4-bis((2-ethylhexyl)oxy)butanoate]",91.7
3,"CCCCCCCCCCCCC(CCOC(=O)CCCCCCC(OCCCC)OCCCC)OC(=O)OCCCN(CC)CC (stereo not shown) [Example 20, 3-(((3-(diethylamino)propoxy)carbonyl)oxy)pentadecyl 8,8-dibutoxyoctanoate]",76.7
4,"CCCCCCCCCCCCC(CCOC(=O)C=C(CCCCCCCC)CCCCCCCC)OC(=O)OCCCN(C)C (stereo not shown) [Example 25, 3-(((3-(dimethylamino)propoxy)carbonyl)oxy)pentadecyl 3-octylundec-2-enoate]",87.1
5,"CCCCCCCCCCCCC(CCOC(=O)CCCCC=C(CCCCCC)CCCCCC)OC(=O)OCCCN(C)C (stereo not shown) [Example 26, 3-(((3-(dimethylamino)propoxy)carbonyl)oxy)pentadecyl 7-hexyltridec-6-enoate]",89.8
6,"CCCCCCCCCCCCC(CCOC(=O)CCCCCCCC(CCCCC)CCCCC)OC(=O)OCCCN(C)C (stereo not shown) [Example 27, 3-(((3-(dimethylamino)propoxy)carbonyl)oxy)pentadecyl 9-pentyltetradecanoate]",86.6
7,"CCCCCCCCCCCCC(CCOC(=O)CCCC(CCCCCCC)CCCCCCC)OC(=O)OCCCN(C)C (stereo not shown) [Example 29, 3-(((3-(dimethylamino)propoxy)carbonyl)oxy)pentadecyl 5-heptyldodecanoate]",86.1

# The remaining lines, values ahead:
row,% encapsulation siRNA FVII [%],SMILES
1,86.8,"CCCCCCCCCCCCC(CCOC(=O)CC(CCCCCCCC)CCCCCCCC)OC(=O)OCCCN(C)C (stereo not shown) [Example 24, 3-(((3-(dimethylamino)propoxy)carbonyl)oxy)pentadecyl 3-octylundecanoate]"
2,86.8,"CCCCC/C=C\C/C=C\CCCCCCCC(=O)OCCC(CCCCCCCCCCCC)OC(=O)OCCCN(C)C (stereo not shown) [Example 43, (9Z,12Z)-3-(((3-(dimethylamino)propoxy)carbonyl)oxy)pentadecyl octadeca-9,12-dienoate]"
